In PMC6207720, “Identification and antitumor activity of a novel inhibitor of the NIMA-related kinase NEK6” (Scientific Reports, 2018):
Where two headings read alike, the source gives them in different places.

What was measured:
NEK6 [1] = molecular target: T1, NEK6 (Homo sapiens, UniProt Q9HC98); assay: Off-chip Mobility Shift Assay (MSA), NEK6; assay type: biochemical; conditions: CARNA Biosciences Study CBS170097, ATP 75 µM
T1 construct: purchased Carna 05-130
Procedure: Therefore, we decided to evaluate the selectivity of compound 8 against a panel of NEK kinases at 10 µM, using the technique of Off-chip Mobility shift assay. This concentration was chosen according to the guidelines proposed by Knight and Shokat, since the probability of off-target effects increases dramatically above 10 µM[36]. Furthermore, ATP concentration was set to approximate the Km,ATP for each kinase, so that the resulting selectivity profile directly reflects the intrinsic affinities of the inhibitor[37]. […] A major consequence of this substitution may be the redistribution of surface charges at the flexible activation loop resulting in an altered electrostatic potential and ability of NEK6 kinase to interact with other molecules.
The inhibitory activity of compounds 8 and 21 on NEK6 was also verified with MSA technique (Off-chip Mobility shift assay) (CARNA Biosciences Study ID: CBS170097, CARNA Biosciences, Kobe). […] PKR Inhibitor was used as positive control. For profiling study against NEK kinases (i.e. NEK1, NEK2, NEK6, NEK7, NEK9) (CARNA Biosciences Study ID: CBS170098), 8 was tested at 10 μM and ATP concentration approximating Km for each kinase. Assay condition for kinases are available on “Kinase profiling book” downloading by www.carnabio.com (https://www.carnabio.com/output/pdf/ProfilingProfilingBook_en.pdf).

NEK6 [2] = molecular target: T1, NEK6; assay: LANCE-Ultra NEK6 kinase assay; assay type: biochemical; conditions: 100 µM ATP
Procedure: The twenty-five compounds resulting from virtual screening were firstly tested for the ability to inhibit the enzymatic activity of NEK6 at a single concentration of 30 µM, using LANCE technology. Quercetin, able to inhibit a broad panel of kinase, was used as positive control of inhibition[12],[30]. This initial screening allowed the identification of two compounds determining >70% NEK6 inhibition at 30 µM, i.e. compound 8 (6-hydroxy-4-methyl-2-oxo-5-[(5-phenyl (2-furyl)) methylene] pyridine-3-carbonitrile), and 21 (6-amino-2-phenyl-5,7,9-triazatetracyclo[8.7.0.0^3,^8 0^11,^16]heptadeca-1(10),3(8),6,11,13,15 hexaene-4,17-dione) (Fig. 4). […] The possible binding mode of compound 8 in the ATP-binding site of NEK6 as well as nonbonded interactions across the complex interface are shown in Fig. 6. Compound 8 may use its phenyl ring and furyl ring to form hydrophobic Pi-alkyl interactions with Ala72 (strand β3), Ala125 (hinge region) and Val59 (strand β2) of the ATP binding site (Fig. 6B). […] This is particulary relevant when considering that C–H···O hydrogen bonds play an important role in the ligand-binding process[33]–[35].
Compounds (i.e. 1 to 25) (Molport, Riga, LV-1011, Latvia) were dissolved in DMSO 100% as 10 mM stock and stored at −20 C. Activity of the compounds as NEK6 inhibitors was tested using LANCE NEK6 Ultra Kinase Assays protocol (U-TRF #25 technical note, PerkinElmer, Monza, MB). Compounds were first tested at 30 µM and incubated with 4 nM NEK6 (Carna, Chuo-ku, Kobe, Japan, # 05-130), 50 nM ULight-p70 S6K Peptide (PerkinElmer # TRF0126) and 100 μM ATP (Sigma-Aldrich, Saint Louis, U.S.A, # A2383) at room temperature. Kinase reactions were terminated after 90 minutes by the addition of EDTA and the signal was read with the Enspire plate reader (PerkinElmer) in TR-FRET mode (excitation at 320 nm and emission at 665 nm) after 60 minutes. Inhibition of NEK6 activity was calculated as percentage with respect to the control sample (100% of activity). Quercetin was used as positive control (Molport). […] For each compound the dose inhibiting 50% of NEK6 activity (IC50) was calculated using the GraphPad Prism 5.0 Software (San Diego, CA, USA).

PEO1 (ovary) = assay: Cell-based cytotoxicity assay (ATPlite), PEO1; set-up: species or system human; conditions: 72 h
Text: The following human carcinoma cell lines were used for the study: MDA-MB-231 and MCF-7 (breast cancer; ATCC, Sesto San Giovanni, MI), PEO1 and COV318 (ovarian cancer; ECACC, Salisbury, UK and ATCC), HCT-15 and SW948 (colon cancer; Public Health England, Salisbury, UK and ATCC), NCI-H1975 and NCI-H1299, (lung cancer; ATCC). Cells were routinely tested free of mycoplasma (MycoAlert mycoplasma detection kit, LONZA, Rockland, ME, USA) and validated by STR (Short Tandem Repeat) DNA profiling (BMR Genomics srl, PD). Cells were grown following supplier indication, in a fully humidified atmosphere of 5% CO2/95% air. All the reagents were purchased from Sigma-Aldrich (St. Louis, MO), if not otherwise specified.

T1 sequence (Q9HC98 whole entry): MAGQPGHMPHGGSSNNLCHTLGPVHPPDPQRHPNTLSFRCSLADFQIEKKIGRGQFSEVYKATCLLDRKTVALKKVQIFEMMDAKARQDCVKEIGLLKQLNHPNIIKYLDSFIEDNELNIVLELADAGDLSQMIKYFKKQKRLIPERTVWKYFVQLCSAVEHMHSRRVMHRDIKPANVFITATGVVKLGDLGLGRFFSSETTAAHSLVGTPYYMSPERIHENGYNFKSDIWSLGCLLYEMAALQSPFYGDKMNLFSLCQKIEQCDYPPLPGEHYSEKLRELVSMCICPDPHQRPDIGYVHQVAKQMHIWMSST

Structure (SMILES): Nc1nc2c(c(=O)[nH]1)C(c1ccccc1)C1=C(N2)c2ccccc2C1=O (centres unmarked) [Compound 21, 6-amino-2-phenyl-5,7,9-triazatetracyclo[8.7.0.0^3,^8 0^11,^16]heptadeca-1(10),3(8),6,11,13,15 hexaene-4,17-dione]
- IC50 (NEK6 [1]): 49.8 µM
- IC50 (NEK6 [2]; LANCE-Ultra, mean ± SEM of 4 independent experiments): 2.6 ± 0.05 µM
- inhibition at 30 µM (NEK6 [2]; single concentration 30 µM, LANCE): > 70%

Structure (SMILES): N.N.[Cl][Pt][Cl] [cisplatin]
- IC50 (PEO1 (ovary); PEO1, cisplatin alone, read-out: Cisplatin IC50 (mean ± SEM)): 7.9 ± 0.65 µM

Structure (SMILES): CC(=O)O[C@H]1C(=O)[C@@]2(C)[C@H]([C@H](OC(=O)c3ccccc3)[C@]3(O)C[C@H](OC(=O)[C@H](O)[C@@H](NC(=O)c4ccccc4)c4ccccc4)C(C)=C1C3(C)C)[C@]1(OC(C)=O)CO[C@@H]1C[C@@H]2O [paclitaxel]
- IC50 (PEO1 (ovary); Homo sapiens, PEO1, paclitaxel alone, read-out: IC50 paclitaxel): 0.007 ± 1e-06 µM
